Where “and” joins values, the source holds several entries; their conditions need not be identical. Identical values can stand only once. Like-named read-outs stand apart in the source and are kept apart here. Marks after values point to notes of the source that are not given here.
What was measured:
[1] = cited from earlier work
[2] = tested on: relapsed/refractory CLL/SLL; details: for Duration of response events: death / Duration of response events: progressive disease / Duration of response: events: responders
[3] = coadministration with itraconazole
[4] = IRC assessed, ITT, Table 15 data cut-off
[5] = IRC assessed, ITT, final analysis
[6] = IRC assessed, del(17p)/TP53 mutation, final analysis
[7] = investigator assessed, ITT, Table 15 data cut-off
[8] = investigator assessed, ITT, final analysis
[9] = investigator assessed, del(17p)/TP53 mutation, final analysis

For `C=CC(=O)N1CCC([C@@H]2CCNc3c(C(N)=O)c(-c4ccc(Oc5ccccc5)cc4)nn32)CC1` [zanubrutinib, (S)-7-(1-acryloylpiperidin-4-yl)-2-(4-phenoxyphenyl)-4,5,6,7-tetrahydropyrazolo[1,5-a]pyrimidine-3-carboxamide], the “Increase in zanubrutinib AUC0-∞” value [1, 3] is given as 3.8 fold, the “Increase in zanubrutinib Cmax” value [1, 3] is given as 2.6 fold and the “Decrease in zanubrutinib AUC0-∞” value ([1]; coadministration with rifampin) is given as 13.5 fold. For the same compound, the “Decrease in zanubrutinib Cmax” value ([1]; coadministration with rifampin) was 12.6 fold, the Exposure change ([1]; coadministration with rifampin) was 13 fold and the “24-month event-free rate, duration of response (95% CI)” value ([2]; IRC assessed) was 77.4 (71.0-82.5) %. For the same compound, the “Median duration of response (95% CI)” value ([2]; IRC assessed) was “had not yet been reached”, the “Best response CR or CRi” value [2, 4] was 13 (4.0) n (%) and the “Best response PD” value [2, 4] was 3 (0.9) n (%). For the same compound, the “Best response PR or nPR” value [2, 4] was 250 (76.5) n (%), the “Best response PR-L” value [2, 4] was 33 (10.1) n (%) and the “Best response SD” value [2, 4] was 20 (6.1) n (%). The “Discontinue prior to first assessment, NA or NE” value (“Discontinue prior” below) [2, 4] was 8 (2.4) n (%), the “ORR (95% CI)” value [2, 4] was 80.4† (75.7, 84.6) % and the “Best response CR or CRi” value [2, 5] was 22 (6.7) n (%). For the same compound, the “Best response PD” value [2, 5] was 3 (0.9) n (%), the “Best response PR or nPR” value [2, 5] was 260 (79.5) n (%) and the “Best response PR-L” value [2, 5] was 18 (5.5) n (%). For the same compound, the “Best response SD” value [2, 5] was 16 (4.9) n (%), the “Discontinue prior” value [2, 5] was 8 (2.4) n (%) and the ORR [2, 5] was 86.2%. The “Best response CR or CRi” value [2, 6] was 6 (8.0) n (%), the “Best response PD” value [2, 6] was 1 (1.3) n (%) and the “Best response PR or nPR” value [2, 6] was 58 (77.3) n (%). The “Best response PR-L” value [2, 6] was 4 (5.3) n (%), the “Best response SD” value [2, 6] was 3 (4.0) n (%) and the “Discontinue prior” value [2, 6] was 3 (4.0) n (%). For the same compound, the ORR [2, 6] was 85.3%, the “Median duration of response (95% CI)” value ([2]; IRC assessed, listed as Zanubrutinib) was “NE (31.3, NE)” and the “Duration of response events: death” value ([2]; IRC assessed) was 20 (7.1) n (%). The “Duration of response events: progressive disease” value ([2]; IRC assessed) was 40 (14.2) n (%), the “Duration of response: events” value ([2]; IRC assessed) was 60 (21.3) n (%) and the “Treatment discontinuation due to progressive disease” value ([2]; ITT) was 7.3%. For the same compound, the “PFS HR (95% CI), zanubrutinib over ibrutinib” value (“PFS HR (95% CI), zanubrutinib” below) ([2]; accounting for drug interruption (ITT), independent review) was 0.71 (0.53, 0.95), the “PFS HR (95% CI), zanubrutinib” value ([2]; accounting for drug interruption (ITT), investigator assessment) was 0.71 (0.52, 0.96) and the “PFS HR (95% CI), zanubrutinib” value ([2]; alternative censoring rules (ITT), independent review) was 0.63 (0.48, 0.84). The “PFS HR (95% CI), zanubrutinib” value ([2]; alternative censoring rules (ITT), investigator assessment) was 0.65 (0.49, 0.87), the Deaths ([2]; final analysis data cut-off) was 48 n and the “PFS HR (95% CI), zanubrutinib” value ([2]; in vivo) was 0.62 (0.46, 0.84) and 0.62 (0.45, 0.84). The “Treatment-failure event-free rate at 24 months” value ([2]; in vivo) was 79.9%, the “24-month event-free rate, duration of response (95% CI)” value ([2]; investigator assessed) was 79.5 (73.1-84.6) % and the “Median PFS” value ([2]; investigator assessed) was “not reached”. For the same compound, the “Median duration of response (95% CI)” value ([2]; investigator assessed) was “had not yet been reached”, the “PFS rate at 24 months” value ([2]; investigator assessed) was 78.4% and the “Patients with disease progression or death” value ([2]; investigator assessed) was 87 patients. For the same compound, the “Rate of partial response with lymphocytosis or better” value ([2]; investigator assessed, ITT) was 89.9%, the “Best response CR or CRi” value [2, 7] was 16 (4.9) n (%) and the “Best response PD” value [2, 7] was 1 (0.3) n (%). For the same compound, the “Best response PR or nPR” value [2, 7] was 244 (74.6) n (%), the “Best response PR-L” value [2, 7] was 32 (9.8) n (%) and the “Best response SD” value [2, 7] was 25 (7.6) n (%). The “Discontinue prior” value [2, 7] was 9 (2.8) n (%), the “ORR (95% CI)” value [2, 7] was 79.5* (74.7, 83.8) % and the “Best response CR or CRi” value [2, 8] was 23 (7.0) n (%). The “Best response PD” value [2, 8] was 1 (0.3) n (%), the “Best response PR or nPR” value [2, 8] was 250 (76.5) n (%) and the “Best response PR-L” value [2, 8] was 21 (6.4) n (%). For the same compound, the “Best response SD” value [2, 8] was 23 (7.0) n (%), the “Discontinue prior” value [2, 8] was 9 (2.8) n (%) and the ORR [2, 8] was 83.5%. For the same compound, the “Best response CR or CRi” value [2, 9] was 5 (6.7) n (%), the “Best response PD” value [2, 9] was 0 n (%) and the “Best response PR or nPR” value [2, 9] was 56 (74.7) n (%). For the same compound, the “Best response PR-L” value [2, 9] was 6 (8.0) n (%), the “Best response SD” value [2, 9] was 5 (6.7) n (%) and the “Discontinue prior” value [2, 9] was 3 (4.0) n (%). The ORR [2, 9] was 81.3%, the “Median duration of response (95% CI)” value ([2]; investigator assessed, listed as Zanubrutinib) was “NE (31.3, NE)” and the “Duration of response events: death” value ([2]; investigator assessed) was 20 (7.3) n (%). For the same compound, the “Duration of response events: progressive disease” value ([2]; investigator assessed) was 33 (12.1) n (%), the “Duration of response: events” value ([2]; investigator assessed) was 53 (19.4) n (%) and the “PD detected by decrease in platelet count” value ([2]; investigator assessment, ITT) was 0. For the same compound, the “PD detected by increase in lymph nodes” value ([2]; investigator assessment, ITT) was 40 (12.2), the “PD detected by new enlarged lymph nodes” value ([2]; investigator assessment, ITT) was 3 (0.9) and the “PD detected by new or increase in splenomegaly” value ([2]; investigator assessment, ITT) was 8 (2.4). The “PD detected by new symptomatic disease” value ([2]; investigator assessment, ITT) was 3 (0.9), the “Patients with disease transformation” value ([2]; investigator assessment, ITT) was 5 (1.5) and the “Patients with progressive disease” value ([2]; investigator assessment, ITT) was 54 (16.5). The “PFS HR (95% CI), zanubrutinib” value ([2]; per protocol population (N = 646), independent review) was 0.64 (0.48, 0.85) and the “PFS HR (95% CI), zanubrutinib” value ([2]; per protocol population (N = 646), investigator assessment) was 0.64 (0.48, 0.85).
